Reference: ChEMBL document CHEMBL1287771, “Novel hybrids of 15-membered 8a- and 9a-azahomoerythromycin A ketolides and quinolones as potent antibacterials” (2010)
Converted amounts (≈) assume the structure as drawn.

Key:
Type in all cases: functional
Staphylococcus aureus [1] = experiment: Antibacterial activity against erythromycin A-susceptible Staphylococcus aureus B0329 by agar microdilution method
Streptococcus pyogenes [2] = experiment: Antibacterial activity against erythromycin A-susceptible Streptococcus pyogenes B0542 by agar microdilution method
Haemophilus influenzae = experiment: Antibacterial activity against Haemophilus influenzae B0529 by agar microdilution method
Streptococcus pyogenes [3] = experiment: Antibacterial activity against inducible macrolide-lincosamide-streptogramin B-resistant Streptococcus pyogenes B0543 by agar microdilution method
Staphylococcus aureus [4] = experiment: Antibacterial activity against efflux-resistant Staphylococcus aureus B0331 by agar microdilution method
Streptococcus pyogenes [5] = experiment: Antibacterial activity against constitutive macrolide-lincosamide-streptogramin B-resistant Streptococcus pyogenes B0544 by agar microdilution method
Streptococcus pyogenes [6] = experiment: Antibacterial activity against efflux-resistant Streptococcus pyogenes B0545 by agar microdilution method
Moraxella catarrhalis = experiment: Antibacterial activity against Moraxella catarrhalis B0324 by agar microdilution method
Streptococcus pneumoniae [7] = experiment: Antibacterial activity against efflux-resistant Streptococcus pneumoniae B0326 by agar microdilution method
Streptococcus pneumoniae [8] = experiment: Antibacterial activity against constitutive macrolide-lincosamide-streptogramin B-resistant Streptococcus pneumoniae B0627 by agar microdilution method
Staphylococcus aureus [9] = experiment: Antibacterial activity against inducible macrolide-lincosamide-streptogramin B-resistant Staphylococcus aureus B0538 by agar microdilution method
Staphylococcus aureus [10] = experiment: Antibacterial activity against constitutive macrolide-lincosamide-streptogramin B-resistant Staphylococcus aureus B0330 by agar microdilution method
Streptococcus pneumoniae [11] = experiment: Antibacterial activity against erythromycin A-susceptible Streptococcus pneumoniae B0541 by agar microdilution method

`CC[C@H]1OC(=O)[C@H](C)[C@@H](O[C@H]2C[C@@](C)(OC)[C@@H](O)[C@H](C)O2)[C@H](C)[C@@H](O[C@@H]2O[C@H](C)C[C@H](N(C)C)[C@H]2O)[C@](C)(O)C[C@@H](C)CN(C)[C@H](C)[C@@H](O)[C@]1(C)O` [AZITHROMYCIN] gave an MIC (Staphylococcus aureus [1]) of 1 µg/mL (≈ 1.34 µM), an MIC (Streptococcus pyogenes [2]) of no more than 0.125 µg/mL and an MIC (Haemophilus influenzae) of 1 µg/mL (≈ 1.34 µM). It also gave an MIC (Streptococcus pyogenes [3]) of 8 µg/mL (≈ 10.7 µM), an MIC (Staphylococcus aureus [4]) greater than 64 µg/mL and an MIC (Streptococcus pyogenes [5]) greater than 64 µg/mL. It also gave an MIC (Streptococcus pyogenes [6]) of 1 µg/mL (≈ 1.34 µM), an MIC (Moraxella catarrhalis) of 0.25 µg/mL (≈ 0.334 µM) and an MIC (Streptococcus pneumoniae [7]) of 4 µg/mL (≈ 5.34 µM). For the same compound, the MIC (Streptococcus pneumoniae [8]) was greater than 64 µg/mL, the MIC (Staphylococcus aureus [9]) was greater than 64 µg/mL and the MIC (Staphylococcus aureus [10]) was greater than 64 µg/mL. The MIC (Streptococcus pneumoniae [11]) was no more than 0.125 µg/mL.

With `CC[C@H]1OC(=O)[C@H](C)C(=O)[C@H](C)[C@@H](O[C@@H]2O[C@H](C)C[C@H](N(C)C)[C@H]2O)[C@](C)(OC)C[C@@H](C)C(=O)[C@H](C)[C@H]2N(CCCCn3cnc(-c4cccnc4)c3)C(=O)O[C@]12C` [TELITHROMYCIN] the MIC (Staphylococcus aureus [1]) was no more than 0.125 µg/mL, the MIC (Streptococcus pyogenes [2]) was no more than 0.06 µg/mL and the MIC (Haemophilus influenzae) was 2 µg/mL (≈ 2.46 µM). For the same compound, the MIC (Streptococcus pyogenes [3]) was no more than 0.06 µg/mL, the MIC (Staphylococcus aureus [4]) was 0.25 µg/mL (≈ 0.308 µM) and the MIC (Streptococcus pyogenes [5]) was 4 µg/mL (≈ 4.93 µM). It also gave an MIC (Streptococcus pyogenes [6]) of 0.25 µg/mL (≈ 0.308 µM), an MIC (Moraxella catarrhalis) of no more than 0.125 µg/mL and an MIC (Streptococcus pneumoniae [7]) of 0.5 µg/mL (≈ 0.616 µM). For the same compound, the MIC (Streptococcus pneumoniae [8]) was no more than 0.125 µg/mL, the MIC (Staphylococcus aureus [9]) was 0.5 µg/mL (≈ 0.616 µM) and the MIC (Staphylococcus aureus [10]) was greater than 64 µg/mL. It also gave an MIC (Streptococcus pneumoniae [11]) of 0.06 µg/mL (≈ 0.0739 µM).

Compound `C=CCO[C@@]1(C)[C@@H](CC)OC(=O)[C@H](C)C(=O)[C@H](C)[C@@H](O[C@@H]2O[C@H](C)C[C@H](N(C)C)[C@H]2O)[C@](C)(OCC=C)C[C@@H](C)C(=O)N[C@H](C)[C@@H]1O` [3-O-DESCLADINOSYL-6,12-DI-O-ALLYL-3-OXO-9A-AZA-9A-HOMOERYTHROMYCIN A] has an MIC (Staphylococcus aureus [1]) of 8 µg/mL (≈ 12 µM), an MIC (Streptococcus pyogenes [2]) of 2 µg/mL (≈ 2.99 µM) and an MIC (Haemophilus influenzae) of 16 µg/mL (≈ 23.9 µM). It also gave an MIC (Streptococcus pyogenes [3]) of 32 µg/mL (≈ 47.8 µM), an MIC (Staphylococcus aureus [4]) of 16 µg/mL (≈ 23.9 µM) and an MIC (Streptococcus pyogenes [5]) greater than 64 µg/mL. It also gave an MIC (Streptococcus pyogenes [6]) of 8 µg/mL (≈ 12 µM), an MIC (Moraxella catarrhalis) of no more than 0.125 µg/mL and an MIC (Streptococcus pneumoniae [7]) of 4 µg/mL (≈ 5.98 µM). The MIC (Streptococcus pneumoniae [8]) was greater than 64 µg/mL, the MIC (Staphylococcus aureus [9]) was 8 µg/mL (≈ 12 µM) and the MIC (Staphylococcus aureus [10]) was greater than 64 µg/mL. The MIC (Streptococcus pneumoniae [11]) was 2 µg/mL (≈ 2.99 µM).

Compound `CC[C@H]1OC(=O)[C@H](C)C(=O)[C@H](C)[C@@H](O[C@@H]2O[C@H](C)C[C@H](N(C)C)[C@H]2O)[C@](C)(OCC(O)CNCCc2ccccc2)C[C@@H](C)NC(=O)[C@H](C)[C@H](O)[C@@]1(C)O` (some centres not stated) has an MIC (Staphylococcus aureus [1]) of 4 µg/mL (≈ 5.22 µM), an MIC (Streptococcus pyogenes [2]) of 0.5 µg/mL (≈ 0.653 µM) and an MIC (Haemophilus influenzae) of 16 µg/mL (≈ 20.9 µM). For the same compound, the MIC (Streptococcus pyogenes [3]) was 1 µg/mL (≈ 1.31 µM), the MIC (Staphylococcus aureus [4]) was 8 µg/mL (≈ 10.4 µM) and the MIC (Streptococcus pyogenes [5]) was 16 µg/mL (≈ 20.9 µM). The MIC (Streptococcus pyogenes [6]) was 1 µg/mL (≈ 1.31 µM), the MIC (Moraxella catarrhalis) was 0.5 µg/mL (≈ 0.653 µM) and the MIC (Streptococcus pneumoniae [7]) was 16 µg/mL (≈ 20.9 µM). The MIC (Streptococcus pneumoniae [8]) was 8 µg/mL (≈ 10.4 µM), the MIC (Staphylococcus aureus [9]) was 16 µg/mL (≈ 20.9 µM) and the MIC (Staphylococcus aureus [10]) was greater than 64 µg/mL. For the same compound, the MIC (Streptococcus pneumoniae [11]) was 0.25 µg/mL (≈ 0.326 µM).

With `O=C(O)c1cn(C2CC2)c2cc(N3CCNCC3)c(F)cc2c1=O` [CIPROFLOXACIN] the MIC (Streptococcus pyogenes [2]) was 2 µg/mL (≈ 6.04 µM), the MIC (Haemophilus influenzae) was no more than 0.125 µg/mL and the MIC (Streptococcus pyogenes [3]) was 0.25 µg/mL (≈ 0.754 µM). The MIC (Staphylococcus aureus [4]) was no more than 0.125 µg/mL, the MIC (Streptococcus pyogenes [5]) was 0.5 µg/mL (≈ 1.51 µM) and the MIC (Streptococcus pyogenes [6]) was no more than 0.125 µg/mL. For the same compound, the MIC (Moraxella catarrhalis) was 0.125 µg/mL (≈ 0.377 µM), the MIC (Streptococcus pneumoniae [7]) was 0.25 µg/mL (≈ 0.754 µM) and the MIC (Streptococcus pneumoniae [8]) was 0.25 µg/mL (≈ 0.754 µM). It also gave an MIC (Staphylococcus aureus [10]) of no more than 0.125 µg/mL and an MIC (Streptococcus pneumoniae [11]) of no more than 0.125 µg/mL.

For `CC[C@H]1OC(=O)[C@H](C)C(=O)[C@H](C)[C@@H](O[C@@H]2O[C@H](C)C[C@H](N(C)C)[C@H]2O)[C@](C)(OCC=Cc2cnc3ccccc3c2)C[C@@H](C)C(=O)[C@H](C)[C@H]2NC(=O)O[C@@]21C` [CETHROMYCIN], the MIC (Staphylococcus aureus [1]) was no more than 0.06 µg/mL, the MIC (Streptococcus pyogenes [2]) was no more than 0.06 µg/mL and the MIC (Haemophilus influenzae) was 2 µg/mL (≈ 2.61 µM). For the same compound, the MIC (Streptococcus pyogenes [3]) was no more than 0.06 µg/mL, the MIC (Staphylococcus aureus [4]) was 0.25 µg/mL (≈ 0.326 µM) and the MIC (Streptococcus pyogenes [5]) was 1 µg/mL (≈ 1.31 µM). It also gave an MIC (Streptococcus pyogenes [6]) of no more than 0.125 µg/mL, an MIC (Moraxella catarrhalis) of no more than 0.125 µg/mL and an MIC (Streptococcus pneumoniae [7]) of no more than 0.06 µg/mL. It also gave an MIC (Streptococcus pneumoniae [8]) of no more than 0.125 µg/mL, an MIC (Staphylococcus aureus [9]) of 0.25 µg/mL (≈ 0.326 µM) and an MIC (Staphylococcus aureus [10]) greater than 64 µg/mL. The MIC (Streptococcus pneumoniae [11]) was 0.06 µg/mL (≈ 0.0783 µM).

Compound `CC[C@H]1OC(=O)[C@H](C)[C@@H](O[C@@H]2C[C@@](C)(OC)[C@@H](O)[C@H](C)O2)[C@H](C)[C@@H](O[C@@H]2O[C@H](C)C[C@H](N(C)C)[C@H]2O)[C@](C)(OC/C=C/NCCc2ccc([N+](=O)[O-])cc2)C[C@@H](C)NC(=O)[C@H](C)[C@H](O)[C@@]1(C)O` has an MIC (Staphylococcus aureus [1]) of 0.5 µg/mL (≈ 0.525 µM), an MIC (Streptococcus pyogenes [2]) of no more than 0.06 µg/mL and an MIC (Haemophilus influenzae) of 4 µg/mL (≈ 4.2 µM). The MIC (Streptococcus pyogenes [3]) was 2 µg/mL (≈ 2.1 µM), the MIC (Staphylococcus aureus [4]) was 32 µg/mL (≈ 33.6 µM) and the MIC (Streptococcus pyogenes [5]) was greater than 64 µg/mL. The MIC (Streptococcus pyogenes [6]) was 16 µg/mL (≈ 16.8 µM), the MIC (Moraxella catarrhalis) was 0.25 µg/mL (≈ 0.262 µM) and the MIC (Streptococcus pneumoniae [7]) was 4 µg/mL (≈ 4.2 µM). For the same compound, the MIC (Streptococcus pneumoniae [8]) was 32 µg/mL (≈ 33.6 µM), the MIC (Staphylococcus aureus [9]) was 64 µg/mL (≈ 67.1 µM) and the MIC (Staphylococcus aureus [10]) was greater than 64 µg/mL. For the same compound, the MIC (Streptococcus pneumoniae [11]) was 0.06 µg/mL (≈ 0.0629 µM).

`CC[C@H]1OC(=O)[C@H](C)C(=O)[C@H](C)[C@@H](O[C@H]2C[C@H](O)[C@@H](N(C)C)[C@@H](C)O2)[C@](C)(OC/C=C/c2cnc3ccccc3c2)C[C@@H](C)/C(=N\O)[C@H](C)[C@@H](O)[C@]1(C)O` showed an MIC (Staphylococcus aureus [1]) of no more than 0.125 µg/mL, an MIC (Streptococcus pyogenes [2]) of no more than 0.125 µg/mL and an MIC (Haemophilus influenzae) of 8 µg/mL (≈ 10.6 µM). For the same compound, the MIC (Streptococcus pyogenes [3]) was no more than 0.125 µg/mL, the MIC (Staphylococcus aureus [4]) was 0.5 µg/mL (≈ 0.661 µM) and the MIC (Streptococcus pyogenes [5]) was 32 µg/mL (≈ 42.3 µM). It also gave an MIC (Streptococcus pyogenes [6]) of no more than 0.125 µg/mL, an MIC (Moraxella catarrhalis) of 4 µg/mL (≈ 5.29 µM) and an MIC (Streptococcus pneumoniae [7]) of no more than 0.125 µg/mL. For the same compound, the MIC (Streptococcus pneumoniae [8]) was 4 µg/mL (≈ 5.29 µM), the MIC (Staphylococcus aureus [9]) was no more than 0.125 µg/mL and the MIC (Staphylococcus aureus [10]) was greater than 64 µg/mL. It also gave an MIC (Streptococcus pneumoniae [11]) of no more than 0.125 µg/mL.
